Kd and binding data for ten molecules are collected here from article PMC6943582 (2019).

In test [1] the test system is NEO2A (RNA, aptamer) CACUGCAGUCCGAAAAGGGCCAGUG
In words: ITC. The following applies: 13.5 mM NaCl, 150 mM KCl, 0.12 mM MgCl2, 0.1 mM MgSO4, 120 nM CaCl2, Buffer A: 20 mM HEPES, pH 7.3, 25 °C.

Test [2] has as its system 2AP14NEO2A (RNA, aptamer, 2-aminopurine at 14) CACUGCAGUCCGAAAAGGGCCAGUG
In words: 2-aminopurine fluorescence. The settings on record: buffer A or F; 10 μM ligand, 1 μM RNA; fluorescence decrease.

In test [3] the test system is NEO2AΔA (RNA, aptamer) CACUGCAGUCCGAAAGGGCCAGUG
The experiment in a line: ITC. The following applies: 13.5 mM NaCl, 150 mM KCl, 0.12 mM MgCl2, 0.1 mM MgSO4, 120 nM CaCl2; Buffer A: 20 mM HEPES, phosphate, pH 7.3, 25 °C.

The test system of test [4] is 2AP7NEO2A (RNA, aptamer, 2-aminopurine at 7) CACUGCAGUCCGAAAAGGGCCAGUG
The experiment in a line: 2-aminopurine fluorescence. The settings on record: buffer A or F; 10 μM ligand, 1 μM RNA; fluorescence increase.

For test [5], the system named is 2AP13NEO2A (RNA, aptamer, 2-aminopurine at 13) CACUGCAGUCCGAAAAGGGCCAGUG
The experiment in a line: 2-aminopurine fluorescence. The following applies: buffer A or F; 10 μM ligand, 1 μM RNA; fluorescence increase.

The test system of test [6] is 2AP16NEO2A (RNA, aptamer, 2-aminopurine at 16) CACUGCAGUCCGAAAAGGGCCAGUG
In words: ITC. The following applies: 13.5 mM NaCl, 150 mM KCl, 0.12 mM MgCl2, 0.1 mM MgSO4, 120 nM CaCl2; Buffer A, pH 7.3, 25 °C; affinity 40% of unsubstituted NEO2A.

In test [1] (phosphate), `NCC[C@H](O)C(=O)N[C@@H]1C[C@H](N)[C@@H](O[C@H]2O[C@H](CN)[C@@H](O)[C@H](O)[C@H]2O)[C@H](O)[C@H]1O[C@H]1O[C@H](CO)[C@@H](O)[C@H](N)[C@H]1O` had a Kd of more than 100 µM. As to `NC[C@@H]1O[C@H](O[C@H]2[C@@H](O)[C@H](O[C@@H]3[C@@H](O)[C@H](N)C[C@H](N)[C@H]3O[C@H]3O[C@H](CN)[C@@H](O)[C@H](O)[C@H]3N)O[C@@H]2CO)[C@H](N)[C@@H](O)[C@@H]1O`, the binding entry in test [2], in test [4], in test [5] and in test [6] was “yes” in each case. Also, the Kd turned out to be 0.17 ± 0.031 µM in test [3] and 0.25 ± 0.050 µM in test [1] (phosphate). In test [1] (phosphate), `NC[C@H]1O[C@H](O[C@H]2[C@H](O)[C@@H](O[C@H]3O[C@H](CO)[C@@H](O)[C@H](N)[C@H]3O)[C@H](N)C[C@@H]2N)[C@H](N)[C@@H](O)[C@@H]1O` showed a Kd of 0.25 ± 0.073 µM. For `NC[C@H]1O[C@H](O[C@H]2[C@H](O[C@@H]3O[C@H](CO)[C@@H](O)[C@H]3O)[C@@H](O)[C@H](N)C[C@@H]2N)[C@H](N)[C@@H](O)[C@@H]1O`, the Kd in test [3] is 2.3 ± 0.0015 µM; in test [1] (Table S4 prints 0.4 ± 0.075), 0.28 ± 0.066 µM.

`NC[C@H]1O[C@H](O[C@H]2[C@H](O)[C@@H](O[C@H]3O[C@H](CO)[C@@H](O)[C@H](N)[C@H]3O)[C@H](N)C[C@@H]2N)[C@H](O)[C@@H](O)[C@@H]1O` yielded a Kd in test [1] (phosphate) of 26 ± 3.0 µM. For the molecule `CCN[C@@H]1C[C@H](N)[C@@H](O[C@H]2OC(CN)=CC[C@H]2N)[C@H](O)[C@H]1O[C@H]1OC[C@](C)(O)[C@H](NC)[C@H]1O`, in test [1] (phosphate), the Kd was more than 100 µM. In test [1] (phosphate), `CN[C@@H]1[C@@H](O)[C@@H](O[C@@H]2[C@@H](O)[C@H](O[C@H]3O[C@H]([C@@H](C)O)[C@@H](O)[C@H](O)[C@H]3N)[C@@H](N)C[C@H]2N)OC[C@]1(C)O` came in with a dissociation constant (Kd) of more than 100 µM. Consider `NC[C@@H]1O[C@H](O[C@H]2[C@@H](O)[C@H](O[C@@H]3[C@@H](O)[C@H](N)C[C@H](N)[C@H]3O[C@H]3O[C@H](CO)[C@@H](O)[C@H](O)[C@H]3N)O[C@@H]2CO)[C@H](N)[C@@H](O)[C@@H]1O`, for which the binding entry in test [3] is on record as “no”. Moreover, the Kd in test [1] (phosphate) is 1.6 ± 0.26 µM.

Turning to `CN[C@@H]1[C@@H](O)[C@@H](O[C@@H]2[C@@H](O)[C@H](O[C@H]3OC(CN)=CC[C@H]3N)[C@@H](N)C[C@H]2N)OC[C@]1(C)O`, the figures for the Kd in test [3] and in test [1] (phosphate) were 4.9 ± 1.0 µM and 4.9 ± 1.2 µM, respectively. The like results for `NC[C@H]1O[C@H](O[C@H]2[C@H](O)[C@@H](O[C@H]3O[C@H](CO)[C@@H](O)[C@H](N)[C@H]3O)[C@H](N)C[C@@H]2N)[C@H](N)C[C@@H]1O` were, in that order, 6.3 ± 0.84 µM and 0.40 ± 0.051 µM.
